The values that follow come from US4542140A, “Pyridinyl substituted ketenemercaptal derivatives” (American Home Products Corporation, priority 1983, dated 1985).

Experiment [1] concerns spontaneous gastric acid secretion. The experiment is described as follows: inhibition of spontaneous gastric acid secretion in cannulated rats. Type of experiment: in vivo, Male albino Sprague Dawley rats. The protocol: Male albino Sprague Dawley rats (200-300 g), purchased from Canadian Breeding Laboratories, were employed. Two gastric cannulas were implanted surgically in each rat as described by L. E. Borella and F. Herr, Gastroenterology, 61, 345 (1971). The rats were used two to three weeks after the operation at a time when their food intake and weight gain were similar to the food intake and weight gain of unoperated litter mates. Before testing, the rats were deprived of food for 18 hours, but they had available a solution of 0.2% sodium chloride in 5% glucose for drinking ad libitum. Prior to each experiment, the plugs of the stomach cannulas of each rat were removed and the debris present in the stomach was flushed out with tepid saline passed through the cannulas. Thereafter, the lumen of the stomach was continuously perfused with saline introduced into the stomach through the forestomach cannula at a rate of 0.8-1.2 ml/min. The stomach perfusate flowing out of the antrum cannula was collected in 60 minutes intervals and the total acid in each collection was titrated with 0.05N sodium hydroxide employing phenol red as an indicator. After a period of acclimatization of about 60 to 90 minutes, the acid output values were recorded. On the basis of the hourly acid output, the rats were divided into equal groups so that the average acid output of all groups was similar. Saline (vehicle) or saline suspensions or solutions of the test compounds were administered intragastrically (i.g.) through the forestomach cannula, after having closed the antral cannula. During the one hour absorption period, the stomachs of the rats were not perfused. After the absorption period, perfusion of the stomachs was resumed, and the perfusates were collected hourly for three hours. The average post-treatment hourly acid outputs of the test compound groups were compared to that of the saline group and the percent inhibition of acid output was calculated. Multiple statistical comparisons between groups was done using Dunnet's t test, C. W. Dunnet, Journal of American Statistical Association, 50, 1096 (1955).

Experiment [2] has as its system gastric lesions induced by absolute alcohol. The experiment is described as follows: gastric lesions induced in rats by absolute alcohol. Type of experiment: in vivo, male albino rats (Sprague-Dawley). The conditions noted are these: i.g., 30 minutes before absolute ethanol. The protocol:
More explicitly exemplified, the beneficial effects were evaluated as follows: food was withheld from male albino rats (180-220 g, Sprague-Dawley, Canadian Breeding Laboratories) for 18 to 19 hours, but water was freely available. Test compounds were administered intragastrically (i.g.) by stomach gavage, 30 minutes before absolute ethanol. The absolute ethanol (one milliliter) also was administered by gavage. One hour after the alcohol treatment, the rats were killed and their stomachs removed for observation. Clotted blood was removed from the surface of the mucosa, and the macroscopic lesions counted. The average scores of the treatment groups were compared individually to that of the control group and percent inhibitions of lesion formation calculated. The data was analyzed statistically according to Dunnett's t test for multiple comparisons between groups.
The results obtained when 2-cyano-3-(methylthio)-3-[[3-pyridinyl)-methyl]thio]-2-propenoic acid methyl ester, described in example 1, was tested according to the previous method is as follows.

Setting [3] is: 50 mg/kg/i.g., tested as hydrochloric acid addition salt.

With `COC(=O)C(C#N)=C(SCc1cccnc1)SCc1cccnc1` [1 (R^2 = 3-pyridinylmethyl thio), 2-cyano-3,3-bis[[(3-pyridinyl)methyl]thio]-2-propenoic acid methyl ester], the “Percent Inhibition of Acid Output” value in experiment [1] (25 mg/kg/i.g.) was determined as 38%.
As for `COC(=O)C(C#N)=C(SC)SCc1cccnc1` [Example 1, 2-Cyano-3-(methylthio)-3-[[(3-pyridinyl)methyl]thio]-2-propenoic Acid Methyl Ester], in experiment [1] (25 mg/kg/i.g.), the “Percent Inhibition of Acid Output” value is 85%. Besides, in experiment [2] (5 mg/kg), the “Gastric Ulcers Formed, % Inhibition” value amounted to 61% and the “Gastric Ulcers Formed, Score (mean ± S.E.)” value is 6.7 ± 2.2. Besides, in experiment [2] (10 mg/kg), the “Gastric Ulcers Formed, % Inhibition” value is on record as 100% and the “Gastric Ulcers Formed, Score (mean ± S.E.)” value is recorded as 0.
Take `COC(=O)C(C#N)=C(SC)SCc1ccc[n+]([O-])c1` [Example 2, 2-Cyano-3-(methylthio)-3-[[(3-pyridinyl)methyl]thio]-2-propenoic Acid Methyl Ester N-oxide]: the “Percent Inhibition of Acid Output” value in experiment [1] (25 mg/kg/i.g.) is 60%.
On to `COC(=O)C(C#N)=C(SC)Sc1ccnnc1C` [Example 3, 2-cyano-3-[(3-methyl-4-pyridazinyl)thio]-3-(methylthio)-2-propenoic acid methyl ester], for which the “Percent Inhibition of Acid Output” value in experiment [1] (setting [3]) is listed as 90%.
With `COC(=O)C(C#N)=C(SC)SCc1cnccn1` [Example 4, 2-cyano-3-(methylthio)-3-[[(3-pyrazinyl)methyl]-thio]-2-propenoic acid methyl ester], in experiment [1] (setting [3]), the “Percent Inhibition of Acid Output” value is recorded as 88%.
In the case of `CSC(SCc1cccnc1)=C(C#N)C(N)=O` [Example 12, 2-Cyano-3-(methylthio)-3-[[(3-pyridinyl)methyl]thio]-2-propenamide], the “Percent Inhibition of Acid Output” value in experiment [1] (25 mg/kg/i.g.) is recorded as 27%.
On to `CSC(SCc1ccncc1)=C(C#N)C(N)=O` [Example 13, 2-Cyano-3-(methylthio)-3-[[(4-pyridinyl)methyl]thio]-2-propenamide], for which the “Percent Inhibition of Acid Output” value in experiment [1] (50 mg/kg/i.g.) is given as 59%.
